# Measured values from PMC10366102, “Dose escalation and expansion cohorts in patients with advanced breast cancer in a Phase I study of the CDK7-inhibitor samuraciclib” (Nature Communications, 2023).
# “And” between values parts separate entries of the source, which are not always exact repeats. Identical values can stand only once. Like-named read-outs stand apart in the source and are kept apart here.
# Tests used:
# [1] = test system: patient-derived xenograft models of TNBC; design: method as in Bahl et al, 2017; conditions: ref Bahl et al, 2017; cited from earlier work
# [2] = design: method as in ref IB; conditions: human microsomes and hepatocytes in vitro; ref IB; cited from earlier work
# [3] = design: method as in ref IB; conditions: mouse; ref IB; cited from earlier work
# [4] = design: method as in ref IB; conditions: ref IB; cited from earlier work
# human tumour xenograft = test system: human tumour xenograft; design: method as in ref IB; conditions: ref IB, cited from earlier work
# [5] = test system: HR+/HER2− advanced breast cancer; experiment: Module 2A anti-tumor activity (RECIST V1.1, PFS, ctDNA subgroups); assay type: in vivo, human
# Description: A single-arm, ascending-dose study was conducted in 2 cohorts to explore the recommended dose of samuraciclib and fulvestrant in HR+/HER2− advanced breast cancer patients who had previously received, and become resistant to, a CDK4/6 inhibitor. Female patients with histologically confirmed diagnosis of breast cancer, evidence of metastatic or locally advanced disease, and documented ER+ and/or PgR+ and HER2- tumor status treated with an AI in combination with a CDK4/6i before study entry were eligible. In each cohort the dose of fulvestrant was 500 mg every 28 ± 2 days, with an additional 500 mg dose given 14 ± 2 days after the first dose. Cohort 1 tested samuraciclib 240 mg OD continuous dosing. If the DLT stopping criteria were not met, Cohort 2 commenced enrollment at the Module 1A MTD. Patients underwent regular safety monitoring and 8-week scans reported using RECIST V1.1[32].
# Per-protocol ctDNA samples were taken in Module 1B-1 at screening, C1D1, C2D1 and on D1 of alternating cycles from Cycle 3; in Module 2A at screening, C1D1 and at either C2D1 (240 mg) or C2D15 (360 mg) for mutational analysis[24],[33], (Supplementary Information). pPolII in lymphocytes and pPolII and pCDK1/2/3 in core needle tissue samples from patients recruited to the paired biopsy cohort were evaluated for on-target pharmacodynamic analyses. […]
# treatment RECIST assessment. […]
# number of patients in the particular analysis population. Duration of response (DoR) was defined as the time from documentation of tumor response to disease progression. Progression-free survival (PFS) was […]
# cause, whichever occurred first. Efficacy results were summarized descriptively and Kaplan -Meier plots provided where appropriate. […]
# dogs = conditions: cited from earlier work; for AUC0-t: Dog, 20 mg/kg/day oral, ref IB
# CYP2C19 = test system: CYP2C19; design: method as in ref IB; conditions: human microsomes; ref IB; cited from earlier work
# [6] = test system: tumour cell lines, including TNBC; design: method as in ref Patel et al, 2018 Ainscow et al, 2018; Clark et al, 2017, Ali et al, 2018; conditions: wide range of tumour cell lines, ref Patel et al, 2018 Ainscow et al, Clark et al, 2017, Ali et al; cited from earlier work
# clinical = experiment: clinical
# Description: PK samples were taken in Module 1A, Module 1 B-1 and Module 2A (see schedule of assessments in Supplementary Information for timing of PK samples). PK parameters were derived using standard non-compartmental methods.
# Samuraciclib pharmacokinetic (PK) analyses were performed using the PK Population (defined as all patients who received at least 1 dose of samuraciclib and who had at least 1 samuraciclib plasma concentration above the lower limit of quantification and no important AEs or protocol deviations or other event that could have impacted the PK analysis). PK parameters were derived using standard non-compartmental methods, with graphical presentations of PK data as appropriate. Samuraciclib plasma concentrations and derived PK parameters were summarized by dose level. Parameters following single and multiple dosing were summarized separately. Appropriate statistics were used to summarize plasma concentrations and PK parameters. […]
# CYP2C9 = test system: CYP2C9; design: method as in ref IB; conditions: human microsomes; ref IB; cited from earlier work
# CYP2D6 = test system: CYP2D6; design: method as in ref IB; conditions: human microsomes; ref IB; cited from earlier work
# CYP1A2 = test system: CYP1A2; design: method as in ref IB; conditions: human microsomes; ref IB; cited from earlier work
# CDK7 = conditions: cited from earlier work
# [7] = design: method as in ref IB; conditions: mouse microsomes; ref IB; cited from earlier work
# [8] = design: method as in ref IB; conditions: ref IB; cited from earlier work; remark: listed apart in the source
# CYP2B6 = test system: CYP2B6; design: method as in ref IB; conditions: human microsomes; ref IB; cited from earlier work
# cytochrome P450 enzymes = test system: cytochrome P450 enzymes; design: method as in ref IB; conditions: followed by 3A4 and a small contribution by 2C19; ref IB; cited from earlier work
# [9] = Module 2A N = 25, + fulvestrant
# [10] = Module 2A, 25 evaluable, + fulvestrant
# [11] = Module 2A, Liver metastases (N = 14)
smiles,measurement,setting,value
"CC(C)c1cnn2c(NCc3ccccc3)cc(NC[C@H]3CCNC[C@@H]3O)nc12 [samuraciclib, Samuraciclib]",Activity in vivo,[1],encouraging activity
same,Metabolic stability,[2],metabolically stable
same,Oral bioavailability,[3],good oral bioavailability
same,Solubility,[4],pH-dependent solubility
same,Anti-tumour efficacy,human tumour xenograft; 100 mg/kg/day,robust efficacy
same,Anti-tumour efficacy,human tumour xenograft; 30 and 50 mg/kg/day,moderate efficacy
same,Patients with PR persisting ≥24 weeks,[5]; Module 2A,2 patients
same,Patients with SD persisting ≥24 weeks,[5]; Module 2A,7 patients
same,"Progression-free survival, median (95% confidence interval)","[5]; Module 2A ITT N = 31, + fulvestrant","3.7 months and 3.7 (1.8, 7.4) months"
same,Best objective response: Complete response,[5]; [9],0 n (%)
same,Best objective response: Partial response,[5]; [9],3 (12.0) n (%)
same,Best objective response: Progressive disease,[5]; [9],9 (36.0) n (%)
same,Best objective response: Stable disease,[5]; [9],13 (52.0) n (%)
same,Clinical benefit rate at 24 weeks,[5]; [9],9 (36.0) n (%)
same,Objective response rate,[5]; [9],3 (12.0) n (%)
same,"Clinical benefit rate at 24 weeks, overall","[5]; Module 2A, 9/25, + fulvestrant",36.0%
same,Best RECIST response PR,[5]; [10],12.0%
same,Best RECIST response SD,[5]; [10],52.0%
same,Patients achieving PR,"[5]; Module 2A, + fulvestrant",3 patients
same,Clinical benefit rate at 24 weeks,[5]; [11],3 (21.4) n (%)
same,"Progression-free survival, median (95% CI)",[5]; [11],"2.8 months and 2.8 (1.8, 7.4) months"
same,Clinical benefit rate at 24 weeks,"[5]; Module 2A, No TP53 mutation (N = 19)",9 (47.4) n (%)
same,"Progression-free survival, median (95% CI)","[5]; Module 2A, No TP53 mutation (N = 20)","7.4 months and 7.4 (3.7, NC) months"
same,Clinical benefit rate at 24 weeks,"[5]; Module 2A, No liver metastases (N = 11)",6 (54.5) n (%)
same,"Progression-free survival, median (95% CI)","[5]; Module 2A, No liver metastases (N = 17)","13.8 months and 13.8 (7.4, NC) months"
same,Clinical benefit rate at 24 weeks,"[5]; Module 2A, TP53 mutation (N = 6)",0 n (%)
same,Clinical benefit rate at 24 weeks,"[5]; Module 2A, TP53 mutation group n = 6",0%
same,Clinical benefit rate at 24 weeks,"[5]; Module 2A, liver metastases, 3/14",21.4%
same,Clinical benefit rate at 24 weeks,"[5]; Module 2A, no detectable TP53 mutation, 9/19",47.4%
same,Clinical benefit rate at 24 weeks,"[5]; Module 2A, no liver metastases, 6/11",54.5%
same,AUC0-t,dogs; Female,5010 ng·h/mL
same,AUC0-t,dogs; Male,3880 ng·h/mL
same,Highest non-severely toxic dose (HNSTD),"dogs; dog, in vivo",20 mg/kg/day
same,Cell growth inhibition,[6],broad activity
same,Apparent clearance,clinical; Module 1A,moderate to high
same,Time to steady state,"clinical; both, human, in vivo",8 to 15 days
same,Tmax,"clinical; both, human, in vivo",1.5 to 4 h
same,half-life,"clinical; both, human, in vivo",~75 h
same,half-life,"clinical; both, human, in vivo, 180 mg",54.8 to 82.3 h
same,half-life,"clinical; both, human, in vivo, 480 mg",30 to 38 h
same,Distribution,clinical; in vivo,extensively distributed
same,Time dependence of PK,clinical; in vivo,time independent
same,Intrinsic clearance,[7],intermediate
same,Phototoxicity,[8],not phototoxic
same,IC50,CYP2B6,> 50 µM
same,CYP mediated clearance,cytochrome P450 enzymes,mainly occurs via CYP2D6
